The data set is described as follows: Storage stability of valacyclovir hydrochloride: N′-formylvalacyclovir impurity level by HPLC. The data set is classed as physicochemical. The conditions noted are these: HPLC area percent; for N′-formylvalacyclovir level (area %), T = 0: before storage; for N′-formylvalacyclovir level (area %), T = 3 month, 25° C., 60% humidity: stored three months at 25° C. and 60% RH; for N′-formylvalacyclovir level (area %), T = 3 month, 40° C., 75% humidity: stored three months at 40° C. and 75% RH. The text has this: When used herein in connection with the absolute amount of an impurity, percent refers to area percent of the corresponding impurity peak on the chromatogram obtained by high pressure liquid chromatography. [drawing 2]
Impurities in valacyclovir, especially N′-formylvalacyclovir, can be measure by high pressure liquid chromatography. The chromatographic method utilizes a suitable chromatography column such as the reverse phase column Inertsil ODS-3V 5 μm 150×4.6 mm (GL Sciences, Cat. No. 5020-01731). The eluent is preferably acetonitrile (27%) and water (73%) containing 0.05% phosphoric acid (0.5 g 85% H3PO4 in 1 L water). A flow rate of about 1.0 mL/min is suitable for the separation. The column temperature can be at ambient temperature, preferably about 25° C. The detector can be a UV-spectrophotometer operating in the range of 200-600 nm, preferably about 210 nm. The injection (sample) volume is about 50 μL. The diluent used to load the sample onto the column can be, for example, the eluent.
A sample of valacyclovir hydrochloride (sample X) having circa 1700 ppm residual solvent isopropanol was divided into two portions. One portion was treated by the method of the present invention and, after treatment, had less than 500 ppm residual isopropanol (sample Y). Sample Y and the non-treated portion of sample X were each divided into two roughly equal portions. One portion of each samplewas stored at 25° C. and 60% RH for three months, the other portions of each were stored at 40° C. and 75% RH for three months. The amount of N′-formylvalacyclovir in each of the four portions after storage was determined by HPLC.

Counter-ions that a name gives are not always drawn.

Take `CC(C)C(N)C(=O)OCCOCn1cnc2c(=O)nc(N)[nH]c21` (stereo not drawn) [X, valacyclovir hydrochloride]: the “N′-formylvalacyclovir level (area %), T = 0” value is given as 0.05 area %; the “N′-formylvalacyclovir level (area %), T = 3 month, 25° C., 60% humidity” value stood at 0.08 area %; the “N′-formylvalacyclovir level (area %), T = 3 month, 40° C., 75% humidity” value came out at 0.15 area %.

On to `CC(C)C(N)C(=O)OCCOCn1cnc2c(=O)nc(N)[nH]c21` (stereo not drawn) [Y, valacyclovir hydrochloride], for which the “N′-formylvalacyclovir level (area %), T = 0” value turned out to be 0.03 area %; the “N′-formylvalacyclovir level (area %), T = 3 month, 25° C., 60% humidity” value is 0.03 area %; the “N′-formylvalacyclovir level (area %), T = 3 month, 40° C., 75% humidity” value is listed as 0.05 area %.

The values are drawn from US20050059684A1, “Method for reducing residual alcohols in crystalline valacyclovir hydrochloride” (priority 2002, published 2005).
